Assay results reported in ChEMBL document CHEMBL1123466, “Selective thromboxane synthetase inhibitors. 3. 1H-imidazol-1-yl-substituted benzo[b]furan-, benzo[b]thiophene-, and indole-2- and -3-carboxylic acids” (J Med Chem, 1986).

How the values were obtained:
Thromboxane-A synthase = target: T1, Thromboxane-A synthase (Homo sapiens, UniProt P24557); assay: In vitro inhibition of thromboxane synthase from human platelets.
T1 sequence (P24557 whole entry): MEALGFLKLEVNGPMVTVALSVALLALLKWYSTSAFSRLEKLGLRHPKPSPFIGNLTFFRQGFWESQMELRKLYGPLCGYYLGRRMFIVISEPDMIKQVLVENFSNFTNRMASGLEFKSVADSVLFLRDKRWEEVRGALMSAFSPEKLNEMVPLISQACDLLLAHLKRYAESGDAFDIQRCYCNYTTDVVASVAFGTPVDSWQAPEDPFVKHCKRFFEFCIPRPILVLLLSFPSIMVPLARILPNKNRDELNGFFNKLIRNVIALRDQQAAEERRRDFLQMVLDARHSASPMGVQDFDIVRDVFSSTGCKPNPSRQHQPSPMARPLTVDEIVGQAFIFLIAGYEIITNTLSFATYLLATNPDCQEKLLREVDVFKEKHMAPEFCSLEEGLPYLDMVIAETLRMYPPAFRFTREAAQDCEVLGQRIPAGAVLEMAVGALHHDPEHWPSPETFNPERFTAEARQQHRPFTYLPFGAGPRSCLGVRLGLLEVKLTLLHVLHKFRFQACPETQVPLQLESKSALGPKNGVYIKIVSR

[1] = target: T2, Cytochrome P450 11B1, mitochondrial (Rattus norvegicus, UniProt P15393); assay: Effect on adrenal 11-beta-hydroxylase activity at 10e-4 M; No significant effect
T2 sequence (P15393 whole entry): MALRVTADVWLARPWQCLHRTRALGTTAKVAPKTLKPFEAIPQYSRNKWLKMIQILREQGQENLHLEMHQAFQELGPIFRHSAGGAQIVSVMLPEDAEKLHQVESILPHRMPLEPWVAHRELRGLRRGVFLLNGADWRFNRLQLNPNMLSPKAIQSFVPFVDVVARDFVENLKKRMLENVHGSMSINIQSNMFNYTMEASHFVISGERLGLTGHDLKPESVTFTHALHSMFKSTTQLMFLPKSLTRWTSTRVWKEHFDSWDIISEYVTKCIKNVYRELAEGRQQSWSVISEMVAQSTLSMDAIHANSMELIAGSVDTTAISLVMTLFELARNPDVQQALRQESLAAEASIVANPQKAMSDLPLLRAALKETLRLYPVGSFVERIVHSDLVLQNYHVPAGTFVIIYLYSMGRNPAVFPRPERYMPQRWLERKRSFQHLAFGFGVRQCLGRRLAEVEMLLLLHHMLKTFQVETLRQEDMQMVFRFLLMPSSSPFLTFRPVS

[2] = target: Prostaglandin G/H synthase (cyclooxygenase) (Ovis aries) (UniProt P05979+P79208); assay: Effect on ram seminal vesicle cyclooxygenase activity at 10e-4 M; no significant effect; type: tissue-based
[3] = system: Prostacyclin synthase (Sus scrofa); assay: Effect on porcine aorta prostacyclin (PGI-2) synthase activity at 10e-4 M; No significant effect

Prostaglandin G/H synthase (cyclooxygenase) (Ovis aries), sequence (P05979 whole entry, looked up): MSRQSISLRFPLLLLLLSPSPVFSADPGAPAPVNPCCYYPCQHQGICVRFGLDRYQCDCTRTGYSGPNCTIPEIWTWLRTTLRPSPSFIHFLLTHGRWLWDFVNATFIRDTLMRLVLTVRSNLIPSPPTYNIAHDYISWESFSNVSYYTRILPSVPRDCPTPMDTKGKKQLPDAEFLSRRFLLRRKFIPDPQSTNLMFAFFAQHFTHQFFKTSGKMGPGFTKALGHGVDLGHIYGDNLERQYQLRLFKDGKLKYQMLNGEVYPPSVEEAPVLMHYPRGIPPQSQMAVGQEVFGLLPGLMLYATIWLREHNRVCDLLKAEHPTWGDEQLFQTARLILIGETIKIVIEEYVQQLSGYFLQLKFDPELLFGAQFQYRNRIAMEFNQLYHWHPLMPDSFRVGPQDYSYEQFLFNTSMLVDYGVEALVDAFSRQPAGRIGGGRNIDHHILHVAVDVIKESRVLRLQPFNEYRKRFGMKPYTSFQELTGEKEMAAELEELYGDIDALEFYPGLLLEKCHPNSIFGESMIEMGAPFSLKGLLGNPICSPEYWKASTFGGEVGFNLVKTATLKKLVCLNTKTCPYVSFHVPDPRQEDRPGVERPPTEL
Prostaglandin G/H synthase (cyclooxygenase) (Ovis aries), sequence (P79208 whole entry, looked up): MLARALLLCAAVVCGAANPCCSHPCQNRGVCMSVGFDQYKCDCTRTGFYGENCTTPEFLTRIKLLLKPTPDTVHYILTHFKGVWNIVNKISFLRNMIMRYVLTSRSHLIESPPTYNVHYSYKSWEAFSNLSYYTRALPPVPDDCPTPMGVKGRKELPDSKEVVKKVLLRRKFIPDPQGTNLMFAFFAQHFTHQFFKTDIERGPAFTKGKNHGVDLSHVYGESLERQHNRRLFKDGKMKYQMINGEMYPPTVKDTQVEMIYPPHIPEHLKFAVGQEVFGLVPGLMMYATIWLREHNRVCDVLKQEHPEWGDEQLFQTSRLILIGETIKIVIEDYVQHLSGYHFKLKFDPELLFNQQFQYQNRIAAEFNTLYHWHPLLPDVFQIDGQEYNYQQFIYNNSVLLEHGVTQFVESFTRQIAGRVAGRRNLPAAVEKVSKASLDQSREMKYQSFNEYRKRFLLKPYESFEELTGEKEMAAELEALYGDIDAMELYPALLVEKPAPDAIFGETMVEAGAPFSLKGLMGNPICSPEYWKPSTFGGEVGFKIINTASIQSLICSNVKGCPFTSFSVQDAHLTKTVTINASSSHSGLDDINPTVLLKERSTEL

Q: With `O=C(O)c1cc2c(O)cc(Cn3ccnc3)cc2s1` as the molecule, how does the IC50 (Thromboxane-A synthase) read?
A: 52 nM

Q: Which IC50 (Thromboxane-A synthase) does the source give for `O=C(O)c1cc2cc(Cn3ccnc3)ccc2[nH]1` here?
A: 5 nM

Q: With `O=C(O)c1csc2cc(Cn3ccnc3)ccc12` as the molecule, how does the IC50 (Thromboxane-A synthase) read?
A: 19 nM

Q: `O=C(O)c1cc2cccc(Cn3ccnc3)c2s1` was tested. Which IC50 (Thromboxane-A synthase) did it give?
A: 120 nM

Q: `O=C(O)COc1ccc(Cn2ccnc2)cc1` was tested. Which IC50 (Thromboxane-A synthase) did it give?
A: 31 nM

Q: With `O=C(O)c1cc2ccc(Cn3ccnc3)cc2o1` as the molecule, how does the IC50 (Thromboxane-A synthase) read?
A: 20 nM

Q: `O=C(O)c1sc2cc(Cn3ccnc3)ccc2c1Cl` was tested. Which IC50 (Thromboxane-A synthase) did it give?
A: 7.4 nM

Q: How did the IC50 (Thromboxane-A synthase) turn out when `O=C(O)c1cc2ccc(Cn3ccnc3)cc2s1` was run?
A: 18 nM

Q: With `O=C(O)c1cc2cc(Cn3ccnc3)ccc2o1` as the molecule, how does the IC50 (Thromboxane-A synthase) read?
A: 34 nM

Q: Which IC50 (Thromboxane-A synthase) does the source give for `O=C(O)c1cc2ccc(Cn3ccnc3)cc2[nH]1` here?
A: 33 nM

Q: With `O=C(O)c1csc2c(Cn3ccnc3)cccc12` as the molecule, how does the IC50 (Thromboxane-A synthase) read?
A: 34 nM

Q: Which IC50 (Thromboxane-A synthase) does the source give for `O=C(O)c1csc2ccc(Cn3ccnc3)cc12` here?
A: 1700 nM

Q: Which IC50 (Thromboxane-A synthase) does the source give for `COc1cc(Cn2ccnc2)cc2sc(C(=O)O)cc12` here?
A: 5 nM

Q: With `Cc1c(C(=O)O)sc2ccc(Cn3ccnc3)cc12` as the molecule, how does the IC50 (Thromboxane-A synthase) read?
A: 29 nM

Q: `Cc1c(C(=O)O)sc2cc(Cn3ccnc3)ccc12` was tested. Which Effect [1] did it give?
A: No effect

Q: What about the Effect [2] of the same molecule?
A: No effect

Q: What about the IC50 (Thromboxane-A synthase) of the same molecule?
A: 5.2 nM

Q: And the Effect [3]?
A: No effect

Q: With `O=C(O)c1cc2cc(Cn3ccnc3)ccc2s1` as the molecule, how does the IC50 (Thromboxane-A synthase) read?
A: 21 nM

Q: `Cc1c(C(=O)O)sc2cc(OCCn3ccnc3)ccc12` was tested. Which IC50 (Thromboxane-A synthase) did it give?
A: 140 nM

Q: `O=C(O)c1cc2cc(OCCn3ccnc3)ccc2s1` was tested. Which IC50 (Thromboxane-A synthase) did it give?
A: 420 nM
